Reference: PubChem BioAssay AID1963447 (Molecular Pharmacology Branch, DTP, NCI, 2024)

System: 885512-296-R-J2-PDC complex spheroid growth, % test/control
Test: Anticancer human tumor 885512-296-R-J2-PDC patient-derived breast carcinoma cell line growth inhibition [Asc]
Settings: for IC50: curve of first compound; for viability, T/C: stronger effect = lower value
Outline: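 Concentration series start at each agent's clinical Cmax, or at 10 microM when none is established, and drop in half-log steps; agents are applied alone or together to complex spheroids built with HUVEC and hMSC.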

[1] = second compound 0.03 µM, first compound 0.0316 µM
[2] = second compound 0.03 µM, first compound 0.1 µM
[3] = second compound 0.03 µM, first compound 0.316 µM
[4] = second compound 0.03 µM, first compound 1 µM
[5] = second compound 0.03 µM, first compound 3.16 µM
[6] = second compound 0.03 µM, first compound 10 µM
[7] = second compound 0.0949 µM, first compound 0.0316 µM
[8] = second compound 0.0949 µM, first compound 0.1 µM
[9] = second compound 0.0949 µM, first compound 0.316 µM
[10] = second compound 0.0949 µM, first compound 1 µM
[11] = second compound 0.0949 µM, first compound 3.16 µM
[12] = second compound 0.0949 µM, first compound 10 µM
[13] = second compound 0.3 µM, first compound 0.0316 µM
[14] = second compound 0.3 µM, first compound 0.1 µM
[15] = second compound 0.3 µM, first compound 0.316 µM
[16] = second compound 0.3 µM, first compound 1 µM
[17] = second compound 0.3 µM, first compound 3.16 µM
[18] = second compound 0.3 µM, first compound 10 µM
[19] = second compound 0.949 µM, first compound 0.0316 µM
[20] = second compound 0.949 µM, first compound 0.1 µM
[21] = second compound 0.949 µM, first compound 0.316 µM
[22] = second compound 0.949 µM, first compound 1 µM
[23] = second compound 0.949 µM, first compound 3.16 µM
[24] = second compound 0.949 µM, first compound 10 µM
[25] = second compound 3 µM, first compound 0.0316 µM
[26] = second compound 3 µM, first compound 0.1 µM
[27] = second compound 3 µM, first compound 0.316 µM
[28] = second compound 3 µM, first compound 1 µM
[29] = second compound 3 µM, first compound 3.16 µM
[30] = second compound 3 µM, first compound 10 µM
[31] = second compound 0.03 µM, first compound 0.00316 µM
[32] = second compound 0.03 µM, first compound 0.01 µM
[33] = second compound 0.0949 µM, first compound 0.00316 µM
[34] = second compound 0.0949 µM, first compound 0.01 µM
[35] = second compound 0.3 µM, first compound 0.00316 µM
[36] = second compound 0.3 µM, first compound 0.01 µM
[37] = second compound 0.949 µM, first compound 0.00316 µM
[38] = second compound 0.949 µM, first compound 0.01 µM
[39] = second compound 3 µM, first compound 0.00316 µM
[40] = second compound 3 µM, first compound 0.01 µM
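Further: spheroids exposed to compounds for seven days.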
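Wherever viability, T/C is given: 100% = DMSO vehicle control wells.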

C#Cc1c(F)ccc2cc(O)cc(-c3ncc4c(N5CC6CCC(C5)N6)nc(OCC56CCCN5CC(F)C6)nc4c3F)c12 (stereo not given) + CCN1C(C(=O)NC23CCC(C(=O)O)(CC2)CC3)C(c2cccc(Cl)c2F)C2(C(=O)Nc3cc(Cl)ccc32)C12CCCCC2
IC50 (second compound 0.03 µM): > 10000 nM
IC50 (second compound 0.0949 µM): > 10000 nM
IC50 (second compound 0.3 µM): > 10000 nM
IC50 (second compound 0.949 µM): > 10000 nM
IC50 (second compound 3 µM): < 31.6 nM
viability, T/C [1]: 105%
viability, T/C [2]: 98%
viability, T/C [3]: 107%
viability, T/C [4]: 82.8%
viability, T/C [5]: 107%
viability, T/C [6]: 80.3%
viability, T/C [7]: 117%
viability, T/C [8]: 101%
viability, T/C [9]: 91.4%
viability, T/C [10]: 89.1%
viability, T/C [11]: 95.6%
viability, T/C [12]: 83.2%
viability, T/C [13]: 95.7%
viability, T/C [14]: 86.5%
viability, T/C [15]: 93.3%
viability, T/C [16]: 82.4%
viability, T/C [17]: 78.3%
viability, T/C [18]: 88.7%
viability, T/C [19]: 80.5%
viability, T/C [20]: 59.9%
viability, T/C [21]: 69.1%
viability, T/C [22]: 64.7%
viability, T/C [23]: 70%
viability, T/C [24]: 84.7%
viability, T/C [25]: 53.7%
viability, T/C [26]: 42.1%
viability, T/C [27]: 38%
viability, T/C [28]: 43.5%
viability, T/C [29]: 51.2%
viability, T/C [30]: 61.7%

C=C(F)C(=O)N1CCN(c2nc(OCC3CCCN3C)nc3c2CCN(c2cccc4cccc(Cl)c24)C3)CC1CC#N (stereo not given) + CCN1C(C(=O)NC23CCC(C(=O)O)(CC2)CC3)C(c2cccc(Cl)c2F)C2(C(=O)Nc3cc(Cl)ccc32)C12CCCCC2
IC50 (second compound 0.03 µM): 2290 nM
IC50 (second compound 0.0949 µM): 2460 nM
IC50 (second compound 0.3 µM): 2240 nM
IC50 (second compound 0.949 µM): 1900 nM
IC50 (second compound 3 µM): 1050 nM
viability, T/C [1]: 96.3%
viability, T/C [2]: 110%
viability, T/C [3]: 101%
viability, T/C [4]: 110%
viability, T/C [5]: 28.6%
viability, T/C [6]: 0.11%
viability, T/C [7]: 118%
viability, T/C [8]: 117%
viability, T/C [9]: 120%
viability, T/C [10]: 107%
viability, T/C [11]: 34%
viability, T/C [12]: 0.38%
viability, T/C [13]: 94%
viability, T/C [14]: 95.1%
viability, T/C [15]: 98.2%
viability, T/C [16]: 102%
viability, T/C [17]: 29.5%
viability, T/C [18]: 0.1%
viability, T/C [19]: 69%
viability, T/C [20]: 72%
viability, T/C [21]: 76.9%
viability, T/C [22]: 90.1%
viability, T/C [23]: 28.6%
viability, T/C [24]: 0.1%
viability, T/C [25]: 43%
viability, T/C [26]: 43.3%
viability, T/C [27]: 51.5%
viability, T/C [28]: 67.5%
viability, T/C [29]: 19.8%
viability, T/C [30]: 0.15%

C=CC(=O)N1CCN(c2nc(=O)n(-c3c(C)ccnc3C(C)C)c3nc(-c4c(O)cccc4F)c(F)cc23)C(C)C1 (stereo not given) + CCN1C(C(=O)NC23CCC(C(=O)O)(CC2)CC3)C(c2cccc(Cl)c2F)C2(C(=O)Nc3cc(Cl)ccc32)C12CCCCC2
IC50 (second compound 0.03 µM): > 10000 nM
IC50 (second compound 0.0949 µM): > 10000 nM
IC50 (second compound 0.3 µM): > 10000 nM
IC50 (second compound 0.949 µM): > 10000 nM
IC50 (second compound 3 µM): < 31.6 nM
viability, T/C [1]: 93.7%
viability, T/C [2]: 96.8%
viability, T/C [3]: 111%
viability, T/C [4]: 112%
viability, T/C [5]: 101%
viability, T/C [6]: 61.3%
viability, T/C [7]: 73.5%
viability, T/C [8]: 108%
viability, T/C [9]: 114%
viability, T/C [10]: 108%
viability, T/C [11]: 96.3%
viability, T/C [12]: 64%
viability, T/C [13]: 89.8%
viability, T/C [14]: 88.3%
viability, T/C [15]: 117%
viability, T/C [16]: 95.3%
viability, T/C [17]: 101%
viability, T/C [18]: 72%
viability, T/C [19]: 68.7%
viability, T/C [20]: 71.2%
viability, T/C [21]: 70%
viability, T/C [22]: 86.9%
viability, T/C [23]: 91.8%
viability, T/C [24]: 61%
viability, T/C [25]: 38.8%
viability, T/C [26]: 52.6%
viability, T/C [27]: 46.4%
viability, T/C [28]: 61.1%
viability, T/C [29]: 58.5%
viability, T/C [30]: 52.2%

CNC(C)C(=O)NC1CN(S(=O)(=O)c2cccc(S(=O)(=O)N3CCC4CCC(C(=O)NC(c5ccccc5)c5ccccc5)N4C(=O)C(NC(=O)C(C)NC)C3)c2)CCC2CCC(C(=O)NC(c3ccccc3)c3ccccc3)N2C1=O (stereo not given) + CCN1C(C(=O)NC23CCC(C(=O)O)(CC2)CC3)C(c2cccc(Cl)c2F)C2(C(=O)Nc3cc(Cl)ccc32)C12CCCCC2
IC50 (second compound 0.03 µM): > 1000 nM
IC50 (second compound 0.0949 µM): > 1000 nM
IC50 (second compound 0.3 µM): > 1000 nM
IC50 (second compound 0.949 µM): > 1000 nM
IC50 (second compound 3 µM): < 3.16 nM
viability, T/C [31]: 92.3%
viability, T/C [32]: 90.4%
viability, T/C [1]: 99.8%
viability, T/C [2]: 94.2%
viability, T/C [3]: 126%
viability, T/C [4]: 109%
viability, T/C [33]: 77.6%
viability, T/C [34]: 110%
viability, T/C [7]: 90.3%
viability, T/C [8]: 112%
viability, T/C [9]: 120%
viability, T/C [10]: 115%
viability, T/C [35]: 84.3%
viability, T/C [36]: 88.7%
viability, T/C [13]: 91.6%
viability, T/C [14]: 93%
viability, T/C [15]: 103%
viability, T/C [16]: 112%
viability, T/C [37]: 75.3%
viability, T/C [38]: 72.8%
viability, T/C [19]: 76.6%
viability, T/C [20]: 87.6%
viability, T/C [21]: 91.9%
viability, T/C [22]: 86.6%
viability, T/C [39]: 41.4%
viability, T/C [40]: 37.4%
viability, T/C [25]: 49%
viability, T/C [26]: 59.5%
viability, T/C [27]: 59%
viability, T/C [28]: 62.6%

COc1c(OCCCN2CCOCC2)ccc2c3n(c(=NC(=O)c4cnc(N)nc4)nc12)CCN3 + CCN1C(C(=O)NC23CCC(C(=O)O)(CC2)CC3)C(c2cccc(Cl)c2F)C2(C(=O)Nc3cc(Cl)ccc32)C12CCCCC2
IC50 (second compound 0.03 µM): 285 nM
IC50 (second compound 0.0949 µM): 259 nM
IC50 (second compound 0.3 µM): 204 nM
IC50 (second compound 0.949 µM): 126 nM
IC50 (second compound 3 µM): < 3.16 nM
viability, T/C [31]: 80.1%
viability, T/C [32]: 87.9%
viability, T/C [1]: 93.5%
viability, T/C [2]: 72.6%
viability, T/C [3]: 48.3%
viability, T/C [4]: 6.36%
viability, T/C [33]: 73.7%
viability, T/C [34]: 88.1%
viability, T/C [7]: 79.8%
viability, T/C [8]: 64.7%
viability, T/C [9]: 47.4%
viability, T/C [10]: 6.12%
viability, T/C [35]: 82.7%
viability, T/C [36]: 68.5%
viability, T/C [13]: 80.1%
viability, T/C [14]: 63.2%
viability, T/C [15]: 41.2%
viability, T/C [16]: 6.26%
viability, T/C [37]: 61.5%
viability, T/C [38]: 54.5%
viability, T/C [19]: 64.4%
viability, T/C [20]: 50%
viability, T/C [21]: 38.8%
viability, T/C [22]: 6.82%
viability, T/C [39]: 47.1%
viability, T/C [40]: 32.4%
viability, T/C [25]: 28.6%
viability, T/C [26]: 35.4%
viability, T/C [27]: 32.6%
viability, T/C [28]: 6.56%
